Measurements: US5622983A, “N-substituted cycloalkyl and polycycloalkyl α-substituted Trp-Phe- and phenethylamine derivatives” (Warner-Lambert Company, priority 1995, dated 1997)

Tests used:
LoVo (xenograft) = experiment: LoVo xenograft growth in nude mice; assay type: in vivo
Procedure: One×10^6 LoVo cells in 0.1 mL serum-free RPMI were injected subcutaneously into the backs of 27 male nude mice. Xenografts were grown for 10 days prior to treatment, then randomly allocated to receive twice daily gavage with either 0.1 mL saline alone or containing 10 mg/kg/day of compound 20 for 20 days. Bidirectional tumor diameter was measured using vernier calipers and converted to volumes […]. The animals were sacrificed on Day 30. The protocol was approved by the UNSW Ethics committee.

[1] = Light/dark exploration test (anxiolytic activity); assay type: in vivo, mouse
Procedure: In FIG. 2 the number of mice was 5 and the pretreatment time was 40 minutes. The compound was given p.o. in 0.1, 1, and 10 mg/kg doses.
The apparatus was an open-topped box, 45 cm long, 27 cm wide, and 27 cm high, divided into a small (2/5) area and a large (3/5) area by a partition that extended 20 cm above the walls. There was a 7.5×7.5 cm opening in the partition at floor level. The small compartment was painted black and the large compartment white. The floor of each compartment was marked into 9 cm squares. The white compartment was illuminated by a 100-watt tungsten bulb 17 cm above the box and the black compartment by a similarly placed 60-watt red bulb. The laboratory was illuminated with red light.
All tests were performed between 13 hundred hours, 0 minutes and 18 hundred hours, 0 minutes. Each mouse was tested by placing it in the center of the white area and allowing it to explore the novel environment for five minutes. Its behavior was recorded on videotape and the behavioral analysis was performed subsequently from the recording. Five parameters were measured: the latency to entry into the dark compartment, the time spent in each area, the number of transitions between compartments, the number of lines crossed in each compartment, and the number of rears in each compartment.
Drugs were dissolved in water or saline and administered either subcutaneously, intraperitoneally, or by mouth (PO) via a stomach needle.

[2] = tested on: pentagastrin stimulated gastric acid secretion; experiment: Pentagastrin stimulated gastric acid secretion (Ghosh and Schild perfused stomach); assay type: in vivo, rat; details: 1 nmole/kg pentagastrin
Procedure: They were anesthetized with urethane (1.5 g/kg IP) and the trachea cannulated to aid spontaneous respiration. The stomach was perfused continuously using a modification of the original method of Ghosh & Schild in "Continuous recording of acid secretion in the rat", Br. J. Pharmac. […] The fluid was propelled by a roller pump (Gilson, Minipuls 2), through heating coils to bring its temperature to 37°±1° C. The perfusion fluid was collected by the fundic collecting funnel and passed to a pH electrode connected to a Jenway pH meter (PHM6). An output was taken from the pH meter to a Rikadenki chart recorder for the on-line recording of the pH of the gastric perfusate.
Pentagastrin was stored as a frozen aliquot and diluted to the required concentrations with sterile 0.9% w/v NaCl. Novel compounds were dissolved in sterile 0.9% w/v NaCl on the day of the experiment. Drugs were administered IV through a cannulated jugular vein as a bolus in a dose volume of 1 mL/kg washed in with 0.15 mL 0.9% w/v NaCl. Basal pH was allowed to stabilize before administration of compounds was begun.

[3] = Rat Social Interaction Test; assay type: in vivo; details: 0,001 to 1.0 mg/kg s.c., paired rats
Excerpt: (Costall, B., University of Bradford)

[4] = Palatable Diet Feeding assay; assay type: in vivo, rat; details: dose producing 50% of the maximum effect possible (zero food intake)
Procedure: In the Palatable Diet Feeding assay, adult male Hooded Lister rats weighing between 200-400 g were housed individually and trained to eat a palatable diet. This diet consisted of Nestles sweetened condensed milk, powdered rat food and rat water which when blended together set to a firm consistency. […] The intake of palatable diet was measured by weighing the food container before and after the 30-minute access period (limits of accuracy 0.1 g). Care was taken to collect and correct for any spillage of the diet. Rats had free access to pellet food and water except during the 30-minute test period.
After the training period, dose-response curves were constructed for CCK8 and several representative compounds of the present invention (n=8-10 rats per dose level).

[5] = 1 mg/kg SC, five-minute measurement periods

CC(Cc1c[nH]c2ccccc12)(NC(=O)OC1C2CC3CC(C2)CC1C3)C(=O)NCC(NC(=O)CCC(=O)O)c1ccccc1 (stereo not drawn) [Example 20, [R-(R*,R*)-4-[[2-[[3-(1H-indol-3-yl)-2-methyl-1-oxo-2-[[(tricyclo[3.3.1.1^3,7]dec-2-yloxy)carbonyl]amino]propyl]amino]-1-phenylethyl]amino]-4-oxobutanoic acid]
reduction of tumor volume at Day 30 compared to control (LoVo (xenograft); 10 mg/kg/day by gavage for 20 days): 53%
tumor growth overall, mean tumor volume (FIG. 17) (LoVo (xenograft); 10 mg/kg/day orally, 20 days, p <0.05, ANOVA): significantly inhibited tumor growth overall
day from which tumor size diverged significantly between control and treated animals (LoVo (xenograft); 10 mg/kg/day, p <0.05, ANOVA): 21 days
time spent in the light area of the test box ([1]; 1 mg/kg PO): significantly (p <0.01) increased the time spent in the light area
crossings into the dark area [1, 5]: 24
crossings into the light area [1, 5]: 85
anxiolytic activity, orally administered (FIG. 2) ([1]; p.o. 0.1, 1, and 10 mg/kg, pretreatment 40 minutes): effectiveness
anxiolytic activity by the subcutaneous route ([1]; subcutaneous): active
reversibility of the antagonism [2]: reversible with full recovery of the response to pentagastrin
effect on stimulation of gastric acid secretion produced by pentagastrin ([2]; compound IV, anesthetized rat): antagonized
time spent in social interaction compared with control (FIG. 13) [3]: increase in time spent in social interaction
Inhibition of Feeding on Rat Palatable Diet Assay I.P. MPE50 [4]: 17.4 mg/kg
